This note sets out measurements from patent publication US9132126B2, “Phenyl-isoxazole derivatives and preparation process thereof” (priority 2011, dated 2015).

A word on the EC50: it is the concentration needed to bring the measured effect to its halfway point.

The test deals with Oseltamivir resistant strain virus. As to the kind of experiment: microbe, parasite or virus in culture. The class given is cell-based, influenza virus.
Where [1] appears, read: unidentified influenza virus, read-out: EC50.

Values after ≈ are worked out from the molar mass of the structure shown. Read-outs that look alike come from different tables or passages of the source.

For `COc1cccc(N2CCN(C(=O)c3c(-c4cccc(F)c4)noc3C)CC2)c1` [Example 12, (3-(3-fluorophenyl)-5-methylisoxazol-4-yl)(4-(3-methoxyphenyl)piperazine-1-yl)methanone], the SI value was in the range of 50.016 to 100.032. For the same molecule, the “antiviral activity effect on a virus strain resistant to Oseltamivir (tamiflu)” value (from here on “antiviral activity effect”) (in words) is on record as “high antiviral activity effect”. The 50% effective concentration (EC50) under setting [1] turned out to be 1.56 µg/mL (≈ 3.95 µM).
In the same order, the values of `COc1cccc(N2CCN(C(=O)c3c(-c4ccccc4Cl)noc3C)CC2)c1` [Example 9, (3-(2-chlorophenyl)-5-methylisoxazol-4-yl)(4-(3-methoxyphenyl)piperazine-1-yl)methanone] are 3221.649 to 13020.833, “high antiviral activity effect” and 0.048 to 0.097 µg/mL (≈ 0.117 to 0.236 µM).
Regarding `COc1ccccc1N1CCN(C(=O)c2c(-c3ccccc3C(F)(F)F)noc2C)CC1` [Example 4], the SI value is 1.563 to 3.125 and the “antiviral activity effect” value is “high antiviral activity effect”. The EC50 (Oseltamivir resistant strain) was determined as 50 µg/mL (≈ 112 µM).
For `COc1cccc(N2CCN(C(=O)c3c(-c4ccccc4C(F)(F)F)noc3C)CC2)c1` [Example 3, (4-(3-methoxyphenyl)piperazine-1-yl)(5-methyl-3-(2-(trifluoromethyl)phenyl)isoxazol-4-yl)methanone], the SI value is 3276.59 to 9812.50. The “antiviral activity effect” value (in words) is “high antiviral activity effect”. Under setting [1], the EC50 lay within 0.064 to 0.094 µg/mL (≈ 0.144 to 0.211 µM).
In the same order, the values of `Cc1onc(-c2ccccc2OC(F)(F)F)c1C(=O)N1CCN(c2ccc(Cl)c(Cl)c2)CC1` [Example 35, (4-(3,4-dichlorophenyl)piperazine-1-yl)(5-methyl-3-(2-(trifluoromethoxy)phenyl)isoxazol-4-yl)methanone] are 1602.564 to 3205.128, “high antiviral activity effect” and 0.195 µg/mL (≈ 0.39 µM).
In the case of `COc1cccc(N2CCN(C(=O)c3c(-c4ccccc4Cl)noc3N)CC2)c1` [Example 60, (5-amino-3-(2-chlorophenyl)isoxazol-4-yl)(4-(3-methoxyphenyl)piperazine-1-yl)methanone], where the note is “in words”, the “antiviral activity effect” value is recorded as “high antiviral activity effect”. Moreover, the concentration giving a half-maximal response (EC50) under setting [1] was in the range of 0.053 to 0.094 µg/mL (≈ 0.128 to 0.228 µM).
`Cc1onc(-c2cccc(F)c2)c1C(=O)N1CCN(c2ccccc2O)CC1` [Example 16, (3-(3-fluorophenyl)-5-methylisoxazol-4-yl)(4-(2-hydroxyphenyl)piperazine-1-yl)methanone] showed an SI value of 100.032 to 200.321. Further, the “antiviral activity effect” value (in words) was “high antiviral activity effect”. For the same molecule, under setting [1], the EC50 fell in the range of 0.39 to 0.781 µg/mL (≈ 1.02 to 2.05 µM).
In turn, `CCOC(=O)C1=C[C@@H](OC(CC)CC)[C@H](NC(C)=O)[C@@H](N)C1` [Oseltamivir, reference compound] showed an SI value of 12.5 to 25. Under setting [1], the half-maximal effective concentration (EC50) was 50 µg/mL (≈ 160 µM).
As for `Cc1onc(-c2cccc(F)c2)c1C(=O)N1CCN(c2ccc(Cl)c(Cl)c2)CC1` [Example 11, (4-(3,4-dichlorophenyl)piperazine-1-yl)(3-(3-fluorophenyl)-5-methylisoxazol-4-yl)methanone], the SI value is 1471.794 to 3205.128. Further, the “antiviral activity effect” value (in words) is on record as “high antiviral activity effect”. Moreover, under setting [1], the EC50 was found to be 0.195 µg/mL (≈ 0.449 µM).
On to `CCOC(=O)C1CCN(C(=O)c2c(-c3ccccc3OC(F)(F)F)noc2N)CC1` [Example 124], for which the SI value stood at 12.5 and the “antiviral activity effect” value is reported as “high antiviral activity effect”. Besides, the EC50 (Oseltamivir resistant strain) was found to be 25 µg/mL (≈ 58.5 µM).
